System: HeLa cells
Test: In vitro drug assay: scAAV2-EGFP transduction after pre-treatment with Neddylation inhibitor
Format: cell-based
Settings: versus control cells
Method: Approximately 3×10^4 HeLa cells were seeded in 24 well plate and incubated for 12 hours in Iscove's-modified Dulbecco's medium (IMDM) with 10% fetal bovine serum in humidified conditions and 5% CO2. Cells were either mock treated or treated with a Neddylation inhibitor, MLN4924 (Calbiochem, Merck, Kenilworth, USA) at a concentration of 1 μM and incubated at 37° C. for 3 hours. After incubation, cells were infected with scAAV2-EGFP vectors at a multiplicity of infection (MOI) of 5000 for 3 hours in IMDM at 37° C. Forty-eight hours later, the transgene (GFP) expression was quantified by flow cytometry (BDaccuri, BD Biosciences, Franklin Lakes, USA).
To determine the role of cellular Neddylation during AAV2 infection, a small molecular inhibitor of Neddylation being used herein, MLN4924. The MLN4924 prevents the formation of the NEDD8 and Neddylation activating enzyme (NAE1) protein complex. The HeLa cells were pre-treated for three hours, after which the HeLa cells were infected with scAAV2-EGFP. […] Further studies such as specific targeting of Neddylation pathway genes by RNA interference are warranted to understand the mechanism involved in this process. […] Forty-eight hours later, the transgene (GFP) expression was quantified by flow cytometry. […]

## NS(=O)(=O)OC[C@@H]1C[C@@H](n2ccc3c(N[C@H]4CCc5ccccc54)ncnc32)C[C@@H]1O [MLN4924]
  improvement of AAV transduction by Neddylation inhibition: 50%

From US12723261B2, “Process for producing a plurality of Neddylation site modified AAV2 vectors” (INDIAN INSTITUTE OF […], priority 2018, dated 2026)
